Conditions: 343.15 K, Liquid, Vibrating tube method

CCCCCCCC(=O)OCC(COC(=O)CCCCCCC)(COC(=O)CCCCCCC)COC(=O)CCCCCCC [pentaerythritol tetraoctanoate]
Conditions | mass density [kg/m3]
14038 kPa | 936.2
14078 kPa | 936.3
14099 kPa | 936.2
14121 kPa | 936.1
14146 kPa | 936.2
14168 kPa | 936.1
14194 kPa | 936.3
14216 kPa | 936.3
14238 kPa | 936.2
14260 kPa | 936.2
14286 kPa | 936.3
14308 kPa | 936.4
14330 kPa | 936.4
14357 kPa | 936.2
14379 kPa | 936.4
14401 kPa | 936.3
14428 kPa | 936.3
14450 kPa | 936.4
14473 kPa | 936.4
14500 kPa | 936.4
14523 kPa | 936.4
14546 kPa | 936.5
14570 kPa | 936.6
14594 kPa | 936.4
14621 kPa | 936.6
14644 kPa | 936.5
14667 kPa | 936.4
14694 kPa | 936.5
14718 kPa | 936.6
14741 kPa | 936.7
14765 kPa | 936.5
14793 kPa | 936.6
14817 kPa | 936.6
14845 kPa | 936.6
14870 kPa | 936.7
14894 kPa | 936.6
14918 kPa | 936.8
14947 kPa | 936.7
14971 kPa | 936.8
14995 kPa | 936.7
15024 kPa | 936.7
15049 kPa | 936.8
15078 kPa | 936.8
15103 kPa | 936.8
15127 kPa | 936.8
15152 kPa | 936.9
15183 kPa | 936.8
15208 kPa | 936.8
15233 kPa | 936.8
15263 kPa | 936.9
15288 kPa | 937
15314 kPa | 937
15344 kPa | 937
15370 kPa | 937
15396 kPa | 937.1
15426 kPa | 937.1
15452 kPa | 937
15478 kPa | 937
15508 kPa | 937
15536 kPa | 937
15563 kPa | 937.1
15589 kPa | 937.3
15616 kPa | 937.2
15647 kPa | 937.1
15673 kPa | 937.2
15705 kPa | 937.3
15732 kPa | 937.3
15759 kPa | 937.3
15791 kPa | 937.2
15818 kPa | 937.3
15846 kPa | 937.3
15879 kPa | 937.4
15908 kPa | 937.4
15936 kPa | 937.2
15964 kPa | 937.3
15992 kPa | 937.3
16026 kPa | 937.4
16054 kPa | 937.5
16083 kPa | 937.4
16116 kPa | 937.5
16144 kPa | 937.5
16173 kPa | 937.5
16207 kPa | 937.5
16236 kPa | 937.5
16265 kPa | 937.7
16300 kPa | 937.7
16329 kPa | 937.6
16358 kPa | 937.7
16387 kPa | 937.6
16423 kPa | 937.7
16453 kPa | 937.7
16483 kPa | 937.8
16518 kPa | 937.7
16548 kPa | 937.6
16578 kPa | 937.8
16609 kPa | 937.7
16645 kPa | 937.8
16676 kPa | 937.9
16707 kPa | 937.9
16738 kPa | 937.8
16775 kPa | 937.8
16806 kPa | 937.9
16843 kPa | 938.1
16904 kPa | 938
16942 kPa | 938
16974 kPa | 938.1
17005 kPa | 938
17037 kPa | 938.1
17075 kPa | 938.1
17107 kPa | 938.1
17146 kPa | 938.2
17354 kPa | 938.2
17387 kPa | 938.2
17421 kPa | 938.3
17460 kPa | 938.4
17494 kPa | 938.4
17528 kPa | 938.4
17569 kPa | 938.5
17604 kPa | 938.5
17638 kPa | 938.4
17678 kPa | 938.5
17713 kPa | 938.4
17748 kPa | 938.5
17790 kPa | 938.6
17825 kPa | 938.6
17861 kPa | 938.6
17904 kPa | 938.7
17940 kPa | 938.7
17977 kPa | 938.8
18022 kPa | 938.8
18054 kPa | 938.8
18084 kPa | 938.8
18119 kPa | 938.8
18149 kPa | 938.8
18179 kPa | 938.8
18210 kPa | 938.9
18247 kPa | 938.9
18279 kPa | 938.9
18312 kPa | 938.9
18349 kPa | 939
18372 kPa | 938.9
18393 kPa | 939.1
18411 kPa | 939.1
18430 kPa | 939
18448 kPa | 939
18465 kPa | 939.1
18482 kPa | 939.1
18503 kPa | 939.2
18521 kPa | 939.1
18542 kPa | 939.2
18560 kPa | 939.1
18577 kPa | 939.1
18598 kPa | 939.1
18616 kPa | 939.1
18635 kPa | 939.2
18657 kPa | 939.2
18673 kPa | 939.2
18695 kPa | 939.2
18712 kPa | 939.1
18730 kPa | 939.3
18752 kPa | 939.4
18771 kPa | 939.4
18789 kPa | 939.2
18812 kPa | 939.2
18830 kPa | 939.2
18848 kPa | 939.3
18870 kPa | 939.4
18888 kPa | 939.3
18907 kPa | 939.4
18926 kPa | 939.4
18948 kPa | 939.4
18967 kPa | 939.4
18986 kPa | 939.4
19008 kPa | 939.4
19027 kPa | 939.4
19049 kPa | 939.6
19068 kPa | 939.5
19087 kPa | 939.4
19106 kPa | 939.5
19129 kPa | 939.5
19148 kPa | 939.4
19167 kPa | 939.5
19190 kPa | 939.6
19210 kPa | 939.6
19225 kPa | 939.6
19248 kPa | 939.6
19271 kPa | 939.5
19291 kPa | 939.6
19310 kPa | 939.7
19334 kPa | 939.6
19353 kPa | 939.6
19373 kPa | 939.6
19396 kPa | 939.7
19416 kPa | 939.7
19436 kPa | 939.7
19456 kPa | 939.8
19480 kPa | 939.6
19499 kPa | 939.7
19519 kPa | 939.6
19543 kPa | 939.7
19563 kPa | 939.8
19587 kPa | 939.8
19608 kPa | 939.8
19627 kPa | 939.7
19647 kPa | 939.8
19671 kPa | 939.9
19691 kPa | 939.7
19712 kPa | 939.8
19736 kPa | 939.8
19756 kPa | 939.8
19780 kPa | 939.9
19801 kPa | 940.1
19821 kPa | 940.1
19841 kPa | 939.9
19866 kPa | 940
19887 kPa | 940
19907 kPa | 940
19932 kPa | 940
19952 kPa | 940.1
19977 kPa | 940
19999 kPa | 940
20019 kPa | 940
20040 kPa | 940.1
20065 kPa | 940
20108 kPa | 940.1
20155 kPa | 940.1
20180 kPa | 940.2
20201 kPa | 940.2
20223 kPa | 940.1
20245 kPa | 940.2
20271 kPa | 940.1
20295 kPa | 940.1
20316 kPa | 940.3
20338 kPa | 940.2
20364 kPa | 940.2
20386 kPa | 940.3
20408 kPa | 940.3
20434 kPa | 940.3
20527 kPa | 940.5
20550 kPa | 940.3
20577 kPa | 940.3
20596 kPa | 940.4
20622 kPa | 940.5
20645 kPa | 940.4
20667 kPa | 940.5
20690 kPa | 940.5
20708 kPa | 940.5
20731 kPa | 940.6
20753 kPa | 940.5
20790 kPa | 940.5
20813 kPa | 940.5
20836 kPa | 940.5
20864 kPa | 940.6
20887 kPa | 940.6
20910 kPa | 940.5
20938 kPa | 940.7
20961 kPa | 940.6
20984 kPa | 940.8
21008 kPa | 940.5
21036 kPa | 940.7
21059 kPa | 940.8
21087 kPa | 940.8
21110 kPa | 940.8
21134 kPa | 940.7
21162 kPa | 940.8
21185 kPa | 940.8
21215 kPa | 940.8
21239 kPa | 940.8
21262 kPa | 940.9
21286 kPa | 940.9
21315 kPa | 940.9
21339 kPa | 940.9
21363 kPa | 940.9
21392 kPa | 941
21416 kPa | 941
21440 kPa | 941
21469 kPa | 940.9
21494 kPa | 941.1
21518 kPa | 941.1
21548 kPa | 941
21573 kPa | 941.1
21597 kPa | 941.1
21622 kPa | 941.1
21652 kPa | 941.1
21677 kPa | 941.1
21702 kPa | 941.2
21732 kPa | 941.3
21757 kPa | 941.3
21782 kPa | 941.2
21812 kPa | 941.2
21837 kPa | 941.1
21863 kPa | 941.2
21890 kPa | 941.1
21920 kPa | 941.2
21946 kPa | 941.3
21977 kPa | 941.3

From the NIST ThermoML archive (doi:10.1021/je060271a)
